Data on three molecules can be found in patent US20090325959A1 (priority 2008, published 2009).

One series has as its target T1, p70S6K human enzyme (Homo sapiens, UniProt P23443, T412E).
T1 construct: purchased Upstate Chemicon 14-486
Kind of series: p70S6K inhibition assay (IMAP FP).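 Also: kinase reaction run at room temperature, phosphorylated substrate captured on IMAP beads and read as fluorescence polarization in mP, IC50 then converted to Ki.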 Format: biochemical.

The target in a further series is T2, Akt3 human enzyme (Homo sapiens, UniProt Q9Y243).
T2 construct: purchased Upstate Chemicon 14-502
The experiment in a line: Akt3 inhibition assay (IMAP FP).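 Also: kinase reaction run 60 min at room temperature after 30 µM ATP start, phosphorylated substrate captured on IMAP beads and read as fluorescence polarization (mP).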 Format: biochemical.

A further series has as its system LPS-challenged mice. Kind of series: LPS-induced neutrophilia and cytokine production assay. It is filed as in vivo, mouse. Conditions: intratracheal administration; FIG. 11B.
In the next series the test system is human monocytes. Kind of series: Human monocyte cytokine secretion assay (LPS-stimulated). It is filed as cell-based. Particulars: average percent of stimulated IL-1β secretion from human monocytes at 10 μM of test compound.
The test system of series [1] is ova-sensitized, ova-challenged mice. The experiment in a line: Mouse ovalbumin sensitization model, in vivo anti-inflammatory activity (BALF eosinophils and cytokines).
Method: Male BALB/c mice were ordered from Charles River Laboratories (Raleigh, N.C.). The animals were approximately 19 to 21 grams at time of receipt. Upon arrival, the animals were randomized into groups of five males per cage and assigned to a dosing group. Animals were quarantined for 7 days under test conditions. They were observed daily for general health status and ability to adapt to the water bottles. Animals were sensitized on day 0 and 14 of study by an intraperitoneal injection with 20 μg of ovalbumin (ova) and 2.0 mg aluminum hydroxide (alum) which initiates the development of a specific T-helper (Th) cells type 2 resulting in asthmatic animals (denoted as Ova in the figures). One group of animals received an injection of saline to use as control animals (denoted as normal in the figures). […] Aerosol challenge consists of using an Aerogen Aeroneb nebulizer and controller with a particle size of 4-6 μm mass median aerodynamic diameter (MMAD) with a distribution of 400 μl per minute. This aerosol challenge is necessary to target the Th2-driven allergic inflammation in the lower airways.
The anti-inflammatory dosing paradigm (FIG. 3) was utilized to evaluate the anti-inflammatory effects of experimental compounds. […] On day 32 of the experiment, after measurement of airway hyperreactivity, BALF was collected and all animals were anesthetized, bled and euthanized.
Bronchoalveolar lavage fluid (BALF) was collected by infusing 3.0 ml of saline with 10% fetal calf serum into the lungs via the trachea and then withdrawing the fluid. The total amount of cells/ml of BALF fluid was determined via manual cell count on hemocytometer. The BALF was centrifuged, supernatant removed and analyzed for cytokine concentrations as described below, and cell pellet reconstituted in 500 μL of fluid. Cytospin slides were prepared from the cell pellet using 100 μL of fluid and spinning samples for 5 minutes at 5000 rpms in a cytospin centrifuge. Following Hema3 stain, relative percentages of individual leukocytes were determined on a 200 cell count for each sample. The final concentration of individual leukocyte cell types per ml of BALF was determined by multiplication of the relative percentage of individual leukocytes with the total amount of cells/ml of BALF fluid.
The concentrations of cytokines in the BALF samples were determined using commercially available Bio-plex kits (Bio-Rad) for the detection of mouse IL-5, IL-13, and Eotaxin. The analysis of cytokine levels was measured using the Bio-Plex 200 (Bio-Rad) system according to the manufacturer's instructions.
The nature of series [2]: Compound plasma concentrations in unsensitized mice at 15 min post administration. It is filed as in vivo. Conditions: mouse.
For series [3], the system named is A-10 rat thoracic aorta cells. Kind of series: PDGF-stimulated smooth muscle cell proliferation assay (BrdU incorporation).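 As to all read-outs here: cells kept in serum-free medium, BrdU allowed to incorporate for 24 h, then incorporated label detected fluorometrically with an anti-BrdU antibody.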 It is filed as cell-based. Particulars: for Percent of PDGF Induced Proliferation at 1 μM Avg / Percent of PDGF Induced Proliferation at 10 μM Avg: A-10 cells, 10 ng/mL PDGF, BrdU incorporation, percent of total challenge-stimulated proliferation; for Percent of PDGF Induced Proliferation at 1 μM Avg: 1 μM test compound; for Percent of PDGF Induced Proliferation at 10 μM Avg: 10 μM test compound.

Another series has as its target T3, ROCK1 (Homo sapiens, UniProt Q13464).
T3 construct: purchased Upstate/Chemicon 14-601
The experiment in a line: Rho kinase inhibition assay (IMAP fluorescence polarization), ROCK1.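 Also: kinase reaction run 60 min at room temperature, then phosphorylated substrate captured on IMAP beads for 30 min, with fluorescence polarization read in mP.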 Format: biochemical.

The subject of the next series is human neutrophils. The experiment in a line: Human neutrophil chemotaxis induced by fMLP (modified Boyden chamber). Format: cell-based. In a few lines:
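Neutrophils from healthy volunteers' blood, isolated by Ficoll-paque centrifugation, dextran sedimentation and hypotonic red-cell lysis. Migration measured in a modified Boyden chamber (3 μm polycarbonate membrane) toward 1 μM fMLP for 1 h at 37° C., 5% CO2. Compounds tested in dose response.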

A short description of series [4]: Rat oral pharmacokinetics (plasma). Format: in vivo. Particulars: 20-30 μmol/kg; for half-life: mean n = 3, read-out: t½ (converted).
Method: Plasma (EDTA K2 anticoagulant) was collected from male, cannulated, CD Sprague Dawley rats to determine the pharmacokinetics of formulations containing compound inhibitors of Rho kinase. Each animal was dosed orally with a 4 ml/kg solution or suspension of each test compound in 10 mM acetate buffered saline, pH 4.5 at a final concentration range of 20-30 μmol/kg. Blood was collected at 0.25, 0.5, 1, 2, 4, 6, 8, and 24 hours. Plasma samples were assayed for the concentration of the test compound using an on-line, solid phase extraction LC/MS/MS analysis system.
Samples were analyzed on a QSTAR Elite, hybrid quadrupole time-of-flight mass spectrometer (Applied Biosystems, Framingham, Mass.) coupled with a Symbiosis Pharma integrated, on-line SPE-HPLC system (Spark Holland Inc., Plainsboro, N.J.). Analyst QS 2.0 software was used for instrument control, data acquisition and processing. […] Mobile Phase A consisted of 0.1% ammonium hydroxide in water and Mobile Phase B consisted of 0.1% formic acid in acetonitrile. Pharmacokinetic analyses were performed using WinNonlin software version 5.2 (Pharsight Corporation, Mountain View, Calif.).
As determined from the plasma concentration versus time curves, the time to peak and peak exposure are represented by the values Tmax and Cmax, respectively. The AUC values (nM*hr) shown were calculated as the areas under the plasma concentration versus time curves from time zero through the time of the last observable value and represent the total exposure of the compound over the course of the study. Half-life values or the amount of time required for the plasma levels of the compound to decline to half the initial value are represented as t½.
For another series, the target named is T4, ROCK2 (Homo sapiens, UniProt O75116).
T4 construct: purchased Upstate/Chemicon 14-451
Kind of series: Rho kinase inhibition assay (IMAP fluorescence polarization), ROCK2.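 Also: kinase reaction started with 10 µM ATP and run 60 min at room temperature, then phosphorylated substrate captured on IMAP beads for 30 min and fluorescence polarization read in mP.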 Format: biochemical.

The subject of series [5] is ova-sensitized, ova-challenged mice. The experiment in a line: Prevention of airway hyperreactivity (Penh, methacholine) in mouse ovalbumin sensitization model. It is filed as in vivo. On the procedure:
The anti-inflammatory dosing paradigm consists of dosing the animals once a day starting on day 27 and finishing on either day 30 or 31 (1 hr prior to the aerosolized ovalbumin challenges on days 28 to 30) but not on day 32 when hyperreactivity evaluation occurs. […] Exposure to the methacholine doses consisted of a 3 minute period during which a nebulizer was aerosolizing the methacholine and an additional 3 minute period following the cessation of nebulization. […] Enhanced pause (Penh), a unitless index of airway hyperreactivity, is derived from the expiratory side of the respiratory waveform measured via the plethysmograph and is used as an indirect measure of airway resistance and hyperreactivity. […] Following the methacholine dose response, BALF was collected and all animals were anesthetized, bled and euthanized. […] The Penh value at each of the dose levels of methacholine represents the 6-minute average response. Change from baseline (CFB) in Penh was calculated at each methacholine dose and the area under the curve (AUC) for these CFB values was calculated using the trapezoidal rule. This same approach was applied for each mouse across multiple experiments. […] Data from equal experimental conditions across experiments performed on different days were pooled for statistical analysis and data reporting. […] A random intercept for each experiment was assumed to account for possible similarities of the results obtained from a given experiment (i.e., as a “blocking effect”). […] For FIG. 9, linear AUC values from compound treated mice were reported as a percent of linear AUC values from vehicle-treated ovalbumin-sensitized/ovalbumin-challenged (asthmatic) mice.

A short description of series [6]: Compound concentrations in lungs of ova-sensitized, ova-challenged mice post IP, PO and IT administration. Conditions: male, Balb/c, mouse, lung, n = 9 or 10, read-out: Lung concentration (plasma corrected); for concentration at 3 h: BD model, time point 3 h. Format: in vivo. On the procedure: Additionally, compound concentrations were determined in the plasma and lungs of male, ovalbumin-sensitized, Balb/c mice from a murine model of asthma. Test compounds were formulated in water or 1% polysorbate 80 and dosed at 15 μmol/kg for intraperitoneal (IP) or oral (PO) administration or formulated for intratracheal (IT) administration and dosed at 5 μmol/kg, which directly targets the lungs. Following completion of the in vivo study, mice were euthanized and blood and plasma collected approximately 2.5-3 hours post administration of test compound for bronchodialator (BD) studies and 24 hours post administration for anti-inflamatory (AI) studies. Lungs were homogenized in Matrix A lysing tubes using a FastPrep 24 tissue and cell homogenizer (MP Biomedicals, Solon, Ohio). Both plasma samples and lung extracts were assayed for compound concentrations using an on-line, solid phase extraction LC/MS/MS system. The actual lung tissue concentrations of each compound in mouse were extrapolated from the lung and plasma concentrations, data are shown in Table 11. The results of a set of experiments using unsensitized mice and collecting only plasma 15 minutes post administration of test compounds are shown in Table 12.

Where [7] appears, read: 30 μM ATP, Ki=IC50/(1+([ATP Challenge]/EC50 ATP)), read-out: p70S6K Ki, Avg.
The mark [8] stands for this setting: average Ki, read-out: p70S6K Ki.
[9] abbreviates: 30 μM ATP, Ki=IC50/(1+([ATP Challenge]/EC50 ATP)), read-out: Akt3 Ki, Avg.
The mark [10] stands for this setting: Neutrophil, 1 h, 1 μM fMLP challenge, one hour, read-out: Chemotaxis Avg. IC50.
[11] abbreviates: average IC50 for inhibition of fMLP-induced neutrophil chemotaxis, read-out: Chemotaxis IC50.
The mark [12] stands for this setting: 10 μM ATP, read-out: ROCK2 Ki, Avg.
The mark [13] stands for this setting: male, CD Sprague Dawley, mean n = 3.
[14] abbreviates: male, CD Sprague Dawley, mean n = 3, read-out: Cmax.
Where [15] appears, read: male, CD Sprague Dawley, mean n = 3, read-out: Tmax.

Like-named read-outs stand apart in the source and are kept apart here.

T3 sequence (Q13464 17-535 limits assumed): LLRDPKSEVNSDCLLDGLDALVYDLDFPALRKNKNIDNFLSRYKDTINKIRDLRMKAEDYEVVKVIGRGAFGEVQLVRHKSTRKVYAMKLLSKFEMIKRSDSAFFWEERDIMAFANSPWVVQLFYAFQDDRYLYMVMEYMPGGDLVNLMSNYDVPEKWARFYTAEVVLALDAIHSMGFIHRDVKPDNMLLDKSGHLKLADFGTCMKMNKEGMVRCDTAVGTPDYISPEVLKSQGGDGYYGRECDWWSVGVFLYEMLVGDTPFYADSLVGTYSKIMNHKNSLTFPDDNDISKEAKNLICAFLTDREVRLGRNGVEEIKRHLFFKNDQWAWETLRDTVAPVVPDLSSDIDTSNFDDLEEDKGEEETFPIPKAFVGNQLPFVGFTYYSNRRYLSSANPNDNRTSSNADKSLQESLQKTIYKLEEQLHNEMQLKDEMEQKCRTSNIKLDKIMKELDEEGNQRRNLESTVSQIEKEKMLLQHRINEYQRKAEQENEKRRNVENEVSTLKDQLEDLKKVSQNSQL
T1 sequence (P23443 1-421 T412E limits assumed): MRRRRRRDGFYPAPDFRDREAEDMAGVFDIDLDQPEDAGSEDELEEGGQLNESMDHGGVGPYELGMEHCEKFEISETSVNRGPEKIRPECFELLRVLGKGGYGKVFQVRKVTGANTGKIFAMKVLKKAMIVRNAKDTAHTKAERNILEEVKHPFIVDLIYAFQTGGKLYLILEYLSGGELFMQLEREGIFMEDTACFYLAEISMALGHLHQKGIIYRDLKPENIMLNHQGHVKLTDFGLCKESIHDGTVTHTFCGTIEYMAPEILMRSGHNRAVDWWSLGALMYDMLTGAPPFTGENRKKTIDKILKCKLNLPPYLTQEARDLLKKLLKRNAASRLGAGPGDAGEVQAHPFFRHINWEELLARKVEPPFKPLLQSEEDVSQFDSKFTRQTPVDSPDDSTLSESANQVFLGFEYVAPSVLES
T2 sequence (Q9Y243 whole entry): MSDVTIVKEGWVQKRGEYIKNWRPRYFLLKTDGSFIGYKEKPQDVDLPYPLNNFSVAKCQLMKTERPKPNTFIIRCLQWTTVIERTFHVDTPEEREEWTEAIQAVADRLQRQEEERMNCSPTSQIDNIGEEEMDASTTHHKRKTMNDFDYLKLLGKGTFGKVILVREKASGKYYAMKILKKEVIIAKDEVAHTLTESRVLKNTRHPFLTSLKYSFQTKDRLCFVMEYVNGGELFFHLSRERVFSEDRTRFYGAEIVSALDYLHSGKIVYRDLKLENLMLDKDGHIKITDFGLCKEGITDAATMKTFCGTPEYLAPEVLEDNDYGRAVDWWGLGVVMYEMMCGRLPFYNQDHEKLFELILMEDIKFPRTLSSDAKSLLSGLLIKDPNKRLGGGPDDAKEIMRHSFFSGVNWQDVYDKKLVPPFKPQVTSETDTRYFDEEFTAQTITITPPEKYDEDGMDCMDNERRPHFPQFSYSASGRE
T4 sequence (O75116 11-552 limits assumed): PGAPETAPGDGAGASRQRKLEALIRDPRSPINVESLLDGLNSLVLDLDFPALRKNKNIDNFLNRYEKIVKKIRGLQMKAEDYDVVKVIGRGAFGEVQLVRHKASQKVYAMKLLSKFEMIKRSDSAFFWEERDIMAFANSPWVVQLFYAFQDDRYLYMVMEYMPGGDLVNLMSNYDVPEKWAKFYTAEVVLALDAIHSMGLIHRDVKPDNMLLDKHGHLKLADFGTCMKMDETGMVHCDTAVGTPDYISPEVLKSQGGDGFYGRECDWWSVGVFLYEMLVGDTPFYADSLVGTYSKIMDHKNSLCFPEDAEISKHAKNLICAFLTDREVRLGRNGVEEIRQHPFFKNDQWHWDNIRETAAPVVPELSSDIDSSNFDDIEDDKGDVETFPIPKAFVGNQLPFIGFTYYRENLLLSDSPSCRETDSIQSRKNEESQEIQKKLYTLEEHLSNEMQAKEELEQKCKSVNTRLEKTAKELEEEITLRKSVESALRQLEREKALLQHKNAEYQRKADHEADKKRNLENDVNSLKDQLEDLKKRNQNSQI
Method for LPS-challenged mice: Male BALB/c mice, approximately 19 to 21 grams, were ordered from Charles River Laboratories (Raleigh, N.C.). All animals were challenged with aerosolized LPS (10 μg/ml) for 25 minutes on study day 0. LPS aerosol was generated using an Aerogen Aeroneb nebulizer and controller providing a flow of 400 μl/min and a particle size of 2-4 μm MMAD. Rolipram was administered i.p at 20 mg/kg. […] Four hours following LPS challenge, BALF was collected using a total of 3 ml of 0.9% sodium chloride containing 10% fetal calf serum. Total cell counts were determined using the Coulter Counter. For differential evaluations, BALF was centrifuged and cytospin slides prepared and stained with Hema3 stain. Manual leukocyte counts were then completed on 200 cells. The final concentration of individual leukocyte cell types per ml of BALF was determined by multiplication of the relative percentage of individual leukocytes with the total amount of cells/ml of BALF fluid. The concentration of IL-1β in the BALF samples was determined using commercially available Bio-plex kits (Bio-Rad). The analysis of cytokine levels was measured using the Bio-Plex 200 (Bio-Rad) system according to the manufacturer's instructions.
Method for ROCK1: (§1) Following the pre-incubation, 10 μM ATP was added to initiate the reaction. After 60 minutes at room temperature, Molecular Devices IMAP™ binding solution was added to bind phosphorylated substrate. After 30 minutes of incubation in the presence of the IMAP™ beads, the fluorescence polarization was read and the ratio was reported as mP. IC50 values for compounds and EC50 values for ATP were calculated using the Prism software from Graphpad.
Method for ROCK2: as §1
Method for human monocytes: Peripheral blood from healthy human volunteers was collected and the monocytes isolated via Ficoll-paque density centrifugation. […] The cells were allowed to pre-incubate with test compound at the indicated concentration for 30 minutes (37° C., 5% CO2, humidified air); after which the supernatant was removed and media containing compound and 1 ng/mL LPS was added. Cells were allowed to incubate with compounds and LPS for 4 hours at 37° C. after which the supernatant was removed and stored at −80° C. Cytokine concentrations in the supernatant were determined using commercially available Bio-Rad Bio-plex™ kits according the manufacturer's instructions.

Consider `CS(=O)(=O)Nc1cccc(CN2CCCC(Nc3ccc4[nH]ncc4c3)C2)c1` (stereo in doubt) [Compound 1.091, (S)-N-(3-((3-(1H-indazol-5-ylamino)piperidin-1-yl)methyl)phenyl)methanesulfonamide], for which the Ki is 1420 nM on p70S6K human enzyme (setting [7]); 1420 nM on p70S6K human enzyme (setting [8]); 5390 nM on Akt3 human enzyme (setting [9]); 5390 nM on Akt3 human enzyme (average Ki, read-out: Akt3 Ki); 71.4 nM at ROCK1 (Avg, 10 μM ATP); 71.4 nM on ROCK1 (average Ki). Also, at ROCK2 (setting [12]), the Ki is 3.3 nM. For the same molecule, the “IL-1β levels in BALF from LPS-challenged mice” value with LPS-challenged mice was “reduction”. Besides, the IL-1β % with human monocytes was found to be 165.5%. Moreover, in [1] (dosed i.t. to day 30, anti-inflammatory dosing paradigm, FIG. 5), the “eosinophils (eosinophil influx, BALF)” value is reported as “reduction of eosinophils”. In addition, in series [2] (plasma, unsensitized mice, 15 min post administration, mean n = 3, read-out: Plasma Mean Concentration), the concentration at 15 min amounted to 334 nM. Also, in [3], the “Percent of PDGF Induced Proliferation at 1 μM Avg” value amounted to 85.7%. In addition, in series [3], the “Percent of PDGF Induced Proliferation at 10 μM Avg” value was 69.3%. The “Proliferation at 1 μM, %” value in series [3] (average percent of PDGF stimulated proliferation at 1 μM of test compound) worked out at 85.7%. In addition, the IC50 in the series on human neutrophils (setting [10]) turned out to be 2330 nM; with human neutrophils (setting [11]), 2300 nM. In addition, the “AUC (0-last)” value in series [4] (mean n = 3) was “BLQ”. The highest concentration (Cmax) result in [4] (mean n = 3) is reported as “BLQ”. Also, the Tmax entry in series [4] (mean n = 3) is on record as “BLQ”. Further, the Vz_F result in [4] (mean n = 3) is “BLQ”. Moreover, the t½ entry in series [4] (mean n = 3) is recorded as “BLQ”. In [5] (intratracheal once a day during days 27 to 30, FIG. 9), the airway hyperreactivity entry is “prevention of airway hyperreactivity”. In addition, the concentration at 3 h in [6] (intraperitoneal, IP 15 μmol/kg) is 117 nM.
`OCCOc1cccc(CN2CCC[C@@H](Nc3ccc4[nH]ncc4c3)C2)c1` [Compound 1.092, (R)-2-(3-((3-(1H-indazol-5-ylamino)piperidin-1-yl)methyl)phenoxy)ethanol]: the inhibition constant (Ki) on ROCK1 (Avg, 10 μM ATP) was found to be 191 nM; at ROCK2 (setting [12]), 28.4 nM. In the series on human neutrophils (setting [10]), the IC50 turned out to be 2750 nM. Moreover, in series [4] (mean n = 3), the Vz_F was found to be 19.0 L/kg. Also, in series [4] (setting [13]), the exposure AUC(0-t) came to 1.85 µM·h. The Cmax in series [4] (setting [14]) turned out to be 2100 nM. Moreover, in series [4] (setting [15]), the Tmax was 0.25 h. For the same molecule, the half-life in series [4] (male, CD Sprague Dawley) was 1.74 h. Also, the concentration at 3 h in series [6] (PO 15 μmol/kg) came out at 152 nM.
`c1cc2cc(CN3CCC[C@@H](Nc4ccc5[nH]ncc5c4)C3)ccc2o1` [Compound 1.131, (R)-N-(1-(benzofuran-5-ylmethyl)piperidin-3-yl)-1H-indazol-5-amine]: the Ki on p70S6K human enzyme (setting [7]) stood at 503 nM; on p70S6K human enzyme (setting [8]), 503 nM; on Akt3 human enzyme (setting [9]), 283 nM; on Akt3 human enzyme (average Ki, read-out: Akt3 Ki) it was 283 nM; on ROCK1 (Avg, 10 μM ATP) it was 19.7 nM; on ROCK1 (average Ki), 19.7 nM. Further, the Ki stood at 3.8 nM on ROCK2 (setting [12]) and 3.8 nM on ROCK2 (average Ki, read-out: ROCK2 Ki). Moreover, the “Airway eosinophil infiltration (eosinophils per ml of BALF)” value in [1] (dosed orally to day 31, anti-inflammatory dosing paradigm, FIG. 4) is recorded as “reduced”. In addition, in series [2] (15 μmol/kg, mean compound plasma concentration in mice at 15 minutes post oral administration, read-out: Mouse Oral PK), the concentration at 15 min came to 445 nM. The “Percent of PDGF Induced Proliferation at 1 μM Avg” value in series [3] was found to be 61.7%. The “Percent of PDGF Induced Proliferation at 10 μM Avg” value in [3] is reported as 36.6%. For the same molecule, the concentration for half-maximal inhibition (IC50) in the series with human neutrophils (setting [10]) came out at 1590 nM; in the series on human neutrophils (setting [11]), 1600 nM. Also, the Vz_F in series [4] (mean n = 3) is given as 6.8 L/kg. The AUC(0-t) in [4] (setting [13]) turned out to be 10.8 µM·h. Further, in [4] (setting [14]), the Cmax came out at 5610 nM. In addition, the Tmax in series [4] (setting [15]) worked out at 0.83 h. In addition, the half-life in [4] (male, CD Sprague Dawley) was 1.55 h. Besides, the “log10AUC (Penh)” value in series [5] (15 μmol/kg/oral, days 27 to 31) is reported as 2.0674. Also, in [5] (oral 15 μMol/kg once a day during days 27 to 31), the “airway hyperreactivity to methacholine dosed on Day 32” value is recorded as “prevention of airway hyperreactivity”. The concentration at 24 h in [6] (AI model, PO 15 μmol/kg, time point 24 h) is 33 nM. For the same molecule, in series [6] (PO 15 μmol/kg), the concentration at 3 h worked out at 7350 nM.
